In brackets after ≈: the same amount, converted by molar mass.
Experiment: Saturation solubility test of propranolol in various solvents at 37° C.
Format: physicochemical

- Mean concentration (mg/ml) ± SD (propranolol in Kolliphor EL, 37° C., n = 3): 1.32 ± 0.00 mg/mL
- Mean concentration (mg/ml) ± SD (propranolol in Tween 20, 37° C., n = 3): 1.86 ± 0.00 mg/mL
- Mean concentration (mg/ml) ± SD (propranolol in Tween 80, 37° C., n = 3): 1.89 ± 0.01 mg/mL
- solubility thermodynamic (propranolol in Water, 37° C., n = 3, read-out: Mean concentration (mg/ml) ± SD): 29.03 ± 0.12 mg/mL (≈ 112 mM)
- Inference (solubility of propranolol in Kolliphor EL): Slightly soluble
- Inference (solubility of propranolol in Tween 20): Slightly soluble
- Inference (solubility of propranolol in Tween 80): Slightly soluble
- Inference (solubility of propranolol in Water): Sparingly soluble
Structure (SMILES): CC(C)NCC(O)COc1cccc2ccccc12 (centres unmarked) [Propranolol, propranolol]

Reference: patent US11833251B2, “Pharmaceutical methods and compositions” (THE UNIVERSITY OF SUSSEX, priority 2018, dated 2023)
